pKi: −log10 of the molar value. Several values for one entry are separate records, joined by “and”; a condition that tells them apart may be missing. Equal entries are not always repeated.
Experiments:
[1] = biological target: T1, Alpha-2B adrenergic receptor (Didelphis virginiana, UniProt O77715)
T1 sequence (O77715 whole entry): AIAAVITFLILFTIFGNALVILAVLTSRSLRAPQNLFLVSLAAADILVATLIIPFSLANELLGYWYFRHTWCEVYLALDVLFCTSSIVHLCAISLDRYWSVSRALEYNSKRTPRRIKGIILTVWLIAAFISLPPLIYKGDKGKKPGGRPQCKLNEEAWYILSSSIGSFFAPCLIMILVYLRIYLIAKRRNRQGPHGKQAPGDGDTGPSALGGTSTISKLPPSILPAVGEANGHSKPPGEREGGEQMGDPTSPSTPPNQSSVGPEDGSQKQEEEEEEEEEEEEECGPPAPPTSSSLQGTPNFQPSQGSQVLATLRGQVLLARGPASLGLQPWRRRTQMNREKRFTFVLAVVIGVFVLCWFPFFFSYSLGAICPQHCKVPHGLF

[2] = biological target: T2, Alpha-2A adrenergic receptor (Homo sapiens, UniProt P08913)
T2 sequence (P08913 whole entry): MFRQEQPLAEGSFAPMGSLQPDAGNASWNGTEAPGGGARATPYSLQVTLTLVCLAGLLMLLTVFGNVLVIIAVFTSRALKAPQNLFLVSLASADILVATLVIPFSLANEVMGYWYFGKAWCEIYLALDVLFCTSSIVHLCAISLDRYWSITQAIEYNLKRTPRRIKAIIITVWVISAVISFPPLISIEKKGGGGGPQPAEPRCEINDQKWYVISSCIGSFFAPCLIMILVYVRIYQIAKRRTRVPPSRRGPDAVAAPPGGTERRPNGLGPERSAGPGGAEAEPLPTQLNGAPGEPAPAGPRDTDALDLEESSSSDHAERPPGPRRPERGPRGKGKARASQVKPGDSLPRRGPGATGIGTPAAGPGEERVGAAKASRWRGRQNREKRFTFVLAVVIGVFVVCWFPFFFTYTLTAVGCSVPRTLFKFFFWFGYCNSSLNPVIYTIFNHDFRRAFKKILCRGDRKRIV

[3] = biological target: T3, Alpha-2C adrenergic receptor (Rattus norvegicus, UniProt P22086)
T3 sequence (P22086 whole entry): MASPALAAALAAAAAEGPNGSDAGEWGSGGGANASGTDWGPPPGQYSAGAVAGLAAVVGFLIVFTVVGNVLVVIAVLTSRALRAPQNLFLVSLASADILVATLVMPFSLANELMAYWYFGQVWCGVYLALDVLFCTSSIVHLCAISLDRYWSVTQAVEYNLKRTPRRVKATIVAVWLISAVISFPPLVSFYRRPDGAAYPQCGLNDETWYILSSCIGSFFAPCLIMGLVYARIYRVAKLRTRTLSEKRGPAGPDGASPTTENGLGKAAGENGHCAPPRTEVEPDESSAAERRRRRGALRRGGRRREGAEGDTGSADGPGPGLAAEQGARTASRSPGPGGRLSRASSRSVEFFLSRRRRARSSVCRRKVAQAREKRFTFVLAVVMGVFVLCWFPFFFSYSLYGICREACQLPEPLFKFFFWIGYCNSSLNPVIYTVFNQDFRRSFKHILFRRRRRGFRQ

[4] = biological target: T4, Alpha-2A adrenergic receptor (Bos taurus, UniProt Q28838)
T4 sequence (Q28838 whole entry): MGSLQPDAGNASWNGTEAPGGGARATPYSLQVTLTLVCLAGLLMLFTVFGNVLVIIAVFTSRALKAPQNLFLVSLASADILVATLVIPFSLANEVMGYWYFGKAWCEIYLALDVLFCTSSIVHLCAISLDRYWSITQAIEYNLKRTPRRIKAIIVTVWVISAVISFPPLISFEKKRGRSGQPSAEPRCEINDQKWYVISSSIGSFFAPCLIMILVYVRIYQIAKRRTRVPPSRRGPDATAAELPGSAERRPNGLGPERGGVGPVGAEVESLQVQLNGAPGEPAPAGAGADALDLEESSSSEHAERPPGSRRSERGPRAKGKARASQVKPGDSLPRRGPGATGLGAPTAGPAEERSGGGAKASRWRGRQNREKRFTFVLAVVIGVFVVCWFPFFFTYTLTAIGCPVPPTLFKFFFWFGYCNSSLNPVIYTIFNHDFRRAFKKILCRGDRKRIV

| SMILES | pKi [1] | pKi [2] | pKi [3] | pKi [4] |
| --- | --- | --- | --- | --- |
| O=C1NCN(c2ccccc2)C12CCN(CC1COc3ccccc3O1)CC2 (stereo unspecified) [8-(2,3-Dihydro-benzo[1,4]dioxin-2-ylmethyl)-1-phenyl-1,3,8-triaza-spiro[4.5]decan-4-one] | 9.59 and 9.21 | 8.02 | 9.55 and 9.15 | 8.03 and 7.92 |
| CN1C[C@H](Cn2ccnc2-c2ccccc2)C[C@@H]2c3cccc4[nH]c(Br)c(c34)C[C@H]21 [BAM-1303] | 9.42 and 9.33 | 9.03 | 8.16 and 8.06 | 7.27 and 6.70 |
| COc1ccccc1N1CCN(CCC2C(=O)c3ccccc3C(C)(C)C2=O)CC1 (stereo unspecified) [NSC_122211] | 7.89 and 7.33 | 6.66 | 8.80 and 8.64 | 6.83 and 6.49 |
| COc1cccc(OC)c1OCCNCC1Oc2ccccc2OC1c1ccccc1 (stereo unspecified) [NSC_185453] | 9.20 and 9.00 | 8.66 | 8.11 and 7.73 | 8.12 and 7.87 |
| NCC(O)c1ccc(O)c(O)c1 (stereo not drawn) [Noradrenaline,(+)] | 7.55 |  |  | 6.03 and 5.98 |
| CC(C)=CCOc1ccc(Cl)c2c1CCN(C)CC2 [SK&F-104078] | 7.37 and 7.26 | 7.40 | 7.31 and 7.16 | 7.09 and 6.84 |
| Cc1cc(C(C)(C)C)c(O)c(C)c1CC1=NCCN1 [SMR000059324] | 7.82 |  |  | 7.42 and 7.48 |
| COc1cc2nc(N3CCN(C(=O)c4ccco4)CC3)nc(N)c2cc1OC [[3H]-Minipress] | 6.88 and 6.93 |  |  | 6.16 and 5.88 |

— BindingDB's records for PubMed 7908054 (University of Nebraska, 1994)
